From US12697319B2, “Methods for inhibiting the progression of neurodegenerative diseases” (BioJiva LLC, priority 2021, dated 2026)
Like-named read-outs stand apart in the source and are kept apart here.

Legend:
[1] = Concentration of D2-LA and D2-AA in RBCs of the same single patient (Example 1); settings: extrapolated from the 3 and 6 month values
Excerpt: This example determines the relative concentration of D2-AA in the CSF and in RBCs in order to determine a correlation between these two concentrations. Specifically, a patient was continuously provided with a daily dose of 9 grams of D2-LA ethyl ester (which is 8.64 grams of active discounting for impurities and removal of the ethyl ester) over about a six-month period. […] In all cases, the D2-AA was obtained by deacylation of the ethyl ester of linoleic acid in the gastrointestinal tract followed by conversion of D2-LA in vivo to D2-AA.

[2] = for Concentration of D2-AA in the RBCs, high: highest of cohort; for Concentration of D2-AA in the RBCs, low: lowest of cohort
Protocol: In this example, children suffering from INAD were treated with a daily dose of 3.9 grams of D2-LA ethyl ester followed by 2.9 grams of D2-LA ethyl ester. Given the age and weight of these children, such is assumed to be substantially equivalent to a loading dose of from about 7 and about 12 grams per day for an adult patient for an adult patient and a maintenance dose which is less than the loading dose again for an adult patient.
This example also determines the concentration of D2-AA in RBCs. Specifically, a cohort of 14 children was provided with a daily dose of 3.9 grams of D2-LA ethyl ester for 1 month followed by 2.9 grams of D2-LA ethyl ester for the remaining six-month period. Blood samples were taken at 3 months for all but 1 child and at 6 months for all children. The concentration of D2-AA in RBCs was measured.

patients with ALS = experiment: ALSFRS-R functional decline in cohort of 3 ALS patients on primer plus maintenance dosing of D2-LA ethyl ester (Example 3); format: in vivo, human; settings: about 9 grams daily for at least 30 days then 5 grams, natural history 21
Protocol: As set forth in the examples below, the rate of functional decline is predicated on measuring an individual's, or a cohort's, average for the natural history of disease progression. Next, the individual or cohort average for the functional decline is determined at a period of time such as at 3, 6 or 12 months after initiation of therapy. The rate of decline based on the average of the natural history of the cohort is set as the denominator. The numerator is set as the delta between the rate of the natural history of disease progression and the rate of functional decline after a set period of treatment per this invention. The resulting fraction is the multiplied by 100 to give a percent change. The following exemplifies this analysis. […]
The functionality of each of the patients was evaluated periodically using the ALSFRS-R protocol. […] Before initiation of therapy, the natural history of each patient in the cohort was determined and an average annual rate of functional decline was measured at 21.
The annualized progression of the disease, as measured by an average annual rate of functional decline for all three patients starting at the time that dosing began and terminating at the end of the dosing regimen and then annualized as described above, was measured as 2.1. […]

murine fibroblasts = settings: fold vs D2-AA; erastin-treated murine fibroblasts
Protocol: In this example, two different pools of cells were each seeded in 48-well plates and treated with 50 micromolar of erastin.
Afterwards, cell viability was measured by plate dilution assay to distinguish between cells that are alive and those that are dead on a Petri dish.

[2H]C([2H])(/C=C\C/C=C\C/C=C\CCCC(=O)O)/C=C\CCCCC [D2-AA, 13,13-D2-Arachidonic Acid]
Amount of D2-AA at 1 month in RBCs (estimated by linear extrapolation, FIG. 1) [1]: about 3%
Concentration of D2-AA in the RBCs, high ([2]; 3 months): 16.8%
Concentration of D2-AA in the RBCs, low ([2]; 3 months): 6.8%
Concentration of D2-AA in the RBCs, high ([2]; 6 months): 26.1%
Concentration of D2-AA in the RBCs, low ([2]; 6 months): 12.0%

[2H]C([2H])(/C=C\CCCCC)/C=C\CCCCCCCC(=O)OCC [D2-LA ethyl ester, 11,11-D2-linoleic acid ethyl ester]
Average annual rate of functional decline during dosing (ALSFRS-R), annualized (patients with ALS): 2.1

[2H]C([2H])(/C=C\CCCCC)/C=C\C([2H])([2H])/C=C\C([2H])([2H])/C=C\CCCC(=O)O
Level of protection against LPO induced cell death relative to 13,13-D2-arachidonic acid (murine fibroblasts): approximately twice
